{"source": "patent US20250090622A1", "about": "“ANGIOTENSIN COMPOSITIONS AND METHODS RELATED THERETO” (LA JOLLA PHARMA, LLC, priority 2017, published 2025)", "key": {"[1]": {"tested_on": "hypotension in distributive shock", "experiment": "clinical study of angiotensin II in treating hypotension in distributive shock", "format": "in vivo, human", "settings": "95% CI 4.76 to 13.3; P<0.001", "description": "Vials containing 2 milliliters of 2.5 mg/mL (mg) angiotensin II in 0.9% saline and 25 mg/mL mannitol were evaluated in a clinical study of angiotensin II in treating hypotension in distributive shock (Khanna et al., N Engl J Med 2017; 377:419-430). Patients were currently on other vasopressors but still hypotensive (mean arterial pressure (MAP)[…]65 mmHg). Administration of angiotensin II was begun at a rate of 20 ng/kg/min, and titrated up or down to achieve and maintain an increased MAP of 10 mmHg above baseline or at least 75 mmHg. For the first 3 hours of treatment, the other vasopressors were held constant and the maximum dose allowed of angiotensin II was 200 ng/kg/min. At 3 hours and 15 minutes, all vasopressors could be titrated to maintain a MAP between 65-75 mmHg and an angiotensin II rate of 1.25-40 ng/kg/min. Angiotensin II could be administered for up to 7 days in this study. In this study, about 1 vial of drug (5 mg) was sufficient to treat each patient for a 24-hour period, and patients were on the treatment for an average of 2 days. Most patients required at least 1 mg of drug per day.\nA total of 344 patients were assigned to one of the two regimens; 321 received a study intervention (163 received angiotensin II, and 158 received placebo) and were included in the analysis."}, "[2]": {"tested_on": "sepsis-induced hypotension", "settings": "porcine fecal peritonitis septic shock; hemodynamic effects similar to norepinephrine; cited from earlier work"}, "blood pressure [3]": {"tested_on": "blood pressure", "settings": "intravenous dosing, rats; cited from earlier work"}, "blood pressure [4]": {"tested_on": "blood pressure", "settings": "intravenous dosing, dogs; cited from earlier work"}, "blood pressure [5]": {"tested_on": "blood pressure", "settings": "intravenous dosing, rabbits; cited from earlier work"}}, "note": "Read-outs that look alike come from different tables or passages of the source."}
{"smiles": "CC[C@H](C)[C@H](NC(=O)[C@H](Cc1ccc(O)cc1)NC(=O)[C@@H](NC(=O)[C@H](CCCNC(=N)N)NC(=O)[C@@H](N)CC(=O)O)C(C)C)C(=O)N[C@@H](Cc1c[nH]cn1)C(=O)N1CCC[C@H]1C(=O)N[C@@H](Cc1ccccc1)C(=O)O", "note": "[angiotensin II, H-Asp-Arg-Val-Try-Ile-His-Pro-Phe-OH]", "values": [{"measurement": "odds ratio for primary end point, angiotensin II vs placebo", "setting": "[1]", "result": 7.95}, {"measurement": "effect on sepsis-induced hypotension", "setting": "[2]", "result": "reversed sepsis-induced hypotension"}, {"measurement": "effect on blood pressure", "setting": "blood pressure [3]", "result": "increase in blood pressure"}, {"measurement": "effect on blood pressure", "setting": "blood pressure [4]", "result": "increase in blood pressure"}, {"measurement": "effect on blood pressure", "setting": "blood pressure [5]", "result": "increase in blood pressure"}]}
